# Assay results as given in ChEMBL document CHEMBL6074638, “Stability studies of β-Amino- and β-Hydroxy difluoromethyl ketones in rat serum and rat liver microsomes” (Bioorg Med Chem Lett, 2024).
# How the values were obtained:
# [1] = Stability in rat serum assessed as parent compound remaining measured after 30 mins by LC-MS analysis; type: ADME, cell-free; settings: read-out: Stability
# [2] = Metabolic stability in rat liver microsomes assessed as parent compound remaining measured after 30 mins in presence of NADPH by LC-MS/MS analysis; type: ADME, Microsome; settings: read-out: Stability
remaining at 0.5 h [1],remaining at 0.5 h [2],Compound
< 1%,63%,CCC/C=C/C(O)C(F)(F)C(=O)C12CC3CC(CC(C3)C1)C2 (configuration not stated)
99%,< 1%,CC(C)(C)OC(=O)NC(c1ccccc1)C(F)(F)C(=O)c1ccc(Cl)cc1 (configuration not stated)
100%,7.5%,COc1ccc(NC(c2ccc(OC)cc2)C(F)(F)C(=O)c2ccc3ccccc3c2)cc1 (configuration not stated)
83%,3%,CC(C)(C)OC(=O)NC(c1ccc(Cl)cc1)C(F)(F)C(=O)c1ccc(Cl)cc1 (configuration not stated)
85%,11.5%,O=C(c1ccc2c(c1)OCO2)C(F)(F)C(O)c1ccc(Cl)cc1 (configuration not stated)
97.5%,7.5%,COc1cc2c(cc1OC)C(C(F)(F)C(=O)c1ccc(C(F)(F)F)cc1)NCC2 (configuration not stated)
96.5%,< 1%,O=C(c1ccc2ccccc2c1)C(F)(F)C(O)c1ccc(F)cc1 (configuration not stated)
86.5%,< 1%,CC(=O)c1ccc(C(O)C(F)(F)C(=O)c2ccc3ccccc3c2)cc1 (configuration not stated)
71.5%,4%,CC(C)(C)OC(=O)NC(c1ccccc1)C(F)(F)C(=O)c1ccc2ccccc2c1 (configuration not stated)
100%,2.5%,CC(C)(C)OC(=O)NC(c1ccccc1)C(F)(F)C(=O)c1ccc2c(c1)OCO2 (configuration not stated)
90.5%,75.5%,O=C(c1ccc2ccccc2c1)C(F)(F)C(O)/C=C/c1ccccc1 (configuration not stated)
83.5%,53%,O=C(c1ccc2c(c1)OCO2)C(F)(F)C(O)c1ccccc1 (configuration not stated)
76%,2%,COc1ccc(C(Nc2ccc(F)cc2)C(F)(F)C(=O)c2ccc3ccccc3c2)cc1 (configuration not stated)
87%,2%,O=C(c1ccc(Cl)cc1)C(F)(F)C(NCc1ccccc1)c1ccccc1 (configuration not stated)
97%,98.5%,O=C(c1ccc(Cl)cc1)C(F)(F)C(O)c1ccccc1 (configuration not stated)
100%,< 1%,CC(C)(C)OC(=O)NC(c1cccc(Br)c1)C(F)(F)C(=O)c1ccc(Cl)cc1 (configuration not stated)
80.5%,< 1%,CC(C)(C)OC(=O)NC(c1ccc(F)cc1)C(F)(F)C(=O)c1ccc(Cl)cc1 (configuration not stated)
100%,2%,C/C=C/C=C/C(NCc1ccccc1)C(F)(F)C(=O)c1ccc2ccccc2c1 (configuration not stated)
35.5%,55%,CC(C)(C)OC(=O)NC(c1cccc(Br)c1)C(F)(F)C(=O)c1ccc2ccccc2c1 (configuration not stated)
73%,70.5%,CC(=O)c1ccc(C(O)C(F)(F)C(=O)C23CC4CC(CC(C4)C2)C3)cc1 (configuration not stated)

# The next lines start with the compound.
Compound,remaining at 0.5 h [1],remaining at 0.5 h [2]
Cc1ccc(NC(c2ccc(F)cc2)C(F)(F)C(=O)c2ccc3ccccc3c2)cc1C (configuration not stated),74%,2%
CC(C)(C)OC(=O)NC(c1ccc(C(F)(F)F)cc1)C(F)(F)C(=O)c1ccc2ccccc2c1 (configuration not stated),48.5%,27%
CC(C)(C)OC(=O)NC(c1ccc(F)cc1)C(F)(F)C(=O)c1ccc2ccccc2c1 (configuration not stated),100%,< 1%
COc1ccc(C(O)C(F)(F)C(=O)c2ccc3ccccc3c2)cc1 (configuration not stated),88.5%,< 1%
CC(C)(C)NC(c1ccccc1)C(F)(F)C(=O)c1ccc2ccccc2c1 (configuration not stated),98%,< 1%
O=C(c1cccc(SCc2ccccc2)c1)C(F)(F)C(NCc1ccccc1)c1ccccc1 (configuration not stated),97%,12.5%
O=C(c1ccc2ccccc2c1)C(F)(F)CO,100%,41.5%
O=C(C12CC3CC(CC(C3)C1)C2)C(F)(F)C(NCc1ccccc1)c1ccccc1 (configuration not stated),100%,< 1%
O=C(c1ccc2ccccc2c1)C(F)(F)C(Nc1ccccc1)c1ccccc1 (configuration not stated),85%,1%
CC(C)(C)OC(=O)NC(c1ccc(Cl)cc1)C(F)(F)C(=O)c1ccc2c(c1)OCO2 (configuration not stated),89%,83%
COc1ccc(C(O)C(F)(F)C(=O)C23CC4CC(CC(C4)C2)C3)cc1 (configuration not stated),66.5%,85.5%
O=C(c1ccc2ccccc2c1)C(F)(F)C(O)c1cccc(F)c1 (configuration not stated),82%,< 1%
CC(C)(C)OC(=O)NC(c1cccc(F)c1)C(F)(F)C(=O)c1ccc(Cl)cc1 (configuration not stated),,< 1%
O=C(c1ccc2ccccc2c1)C(F)(F)C(NCc1ccccc1)c1ccccc1 (configuration not stated),85%,3.5%
COc1ccc(C(NC(=O)OC(C)(C)C)C(F)(F)C(=O)c2ccc3ccccc3c2)cc1 (configuration not stated),61%,10%
COc1ccc(C(Nc2ccccc2)C(F)(F)C(=O)c2ccc3ccccc3c2)cc1 (configuration not stated),100%,< 1%
CC(C)(C)OC(=O)NC(c1cccc(F)c1)C(F)(F)C(=O)c1ccc2ccccc2c1 (configuration not stated),98%,5%
CC(C)(C)OC(=O)NC(c1ccc(Cl)cc1)C(F)(F)C(=O)c1ccc2ccccc2c1 (configuration not stated),< 1%,7.5%
O=C(C12CC3CC(CC(C3)C1)C2)C(F)(F)C(O)c1ccc(Cl)cc1 (configuration not stated),48.5%,< 1%
